Article PMC4490784, “Compensatory induction of MYC expression by sustained CDK9 inhibition via a BRD4-dependent mechanism” (eLife, 2015)
pIC50: −log10 of the molar value.

Experiments:
Assay in all cases: biochemical binding or enzymatic assay
LCK = target: T1, LCK (Homo sapiens, UniProt P06239); details: Novartis
T1 construct: purchased DiscoveRx KINOMEscan
Protocol: (§1) Finally, the selectivity profile of i-CDK9 toward other non-CDK kinases was also assessed using the KINOMEscan platform. […] Except for CLK4, for which no suitable assay was available, the rest of the kinases plus a selected group of others were re-examined for the concentration-dependent effect of i-CDK9 in either functional kinase assays or binding assays. […] Indeed, it has recently been reported that DYRK1A acts as a Pol II CTD Kinase at its target gene promoters ([Di Vona et al., 2015]).

PIM2 = target: T2, PIM2 (Homo sapiens, UniProt Q9P1W9); details: Novartis
T2 construct: purchased DiscoveRx KINOMEscan
Protocol: as §1

MET = target: T3, MET (Homo sapiens, UniProt P08581); details: Novartis
T3 construct: purchased DiscoveRx KINOMEscan
Protocol: as §1

MKNK1 = target: T4, MKNK1 (Homo sapiens, UniProt Q9BUB5); details: Novartis
T4 construct: purchased DiscoveRx KINOMEscan
Protocol: as §1

PKN1 = target: T5, PKN1 (Homo sapiens, UniProt Q16512); details: Novartis
T5 construct: purchased DiscoveRx KINOMEscan
Protocol: as §1

CSNK1G3 = target: T6, CSNK1G3 (Homo sapiens, UniProt Q9Y6M4); details: Novartis
T6 construct: purchased DiscoveRx KINOMEscan
Protocol: as §1

RET = target: T7, RET (Homo sapiens, UniProt P07949); details: Novartis
T7 construct: purchased DiscoveRx KINOMEscan
Protocol: as §1

PDGFRA = target: T8, PDGFRA (Homo sapiens, UniProt P16234); details: Novartis
T8 construct: purchased DiscoveRx KINOMEscan
Protocol: as §1

KIT = target: T9, KIT (Homo sapiens, UniProt P10721); details: Novartis
T9 construct: purchased DiscoveRx KINOMEscan
Protocol: as §1

CSK = target: T10, CSK (Homo sapiens, UniProt P41240); details: Novartis
T10 construct: purchased DiscoveRx KINOMEscan
Protocol: as §1

ALK = target: T11, ALK (Homo sapiens, UniProt Q9UM73); details: Novartis
T11 construct: purchased DiscoveRx KINOMEscan
Protocol: as §1

LYN = target: T12, LYN (Homo sapiens, UniProt P07948); details: Novartis
T12 construct: purchased DiscoveRx KINOMEscan
Protocol: as §1

S6K1 = S6K1 (Homo sapiens, UniProt P23443); details: Novartis
Protocol: as §1

EPHB4 = target: T13, EPHB4 (Homo sapiens, UniProt P54760); details: Novartis
T13 construct: purchased DiscoveRx KINOMEscan
T13 sequence (P54760 16-987): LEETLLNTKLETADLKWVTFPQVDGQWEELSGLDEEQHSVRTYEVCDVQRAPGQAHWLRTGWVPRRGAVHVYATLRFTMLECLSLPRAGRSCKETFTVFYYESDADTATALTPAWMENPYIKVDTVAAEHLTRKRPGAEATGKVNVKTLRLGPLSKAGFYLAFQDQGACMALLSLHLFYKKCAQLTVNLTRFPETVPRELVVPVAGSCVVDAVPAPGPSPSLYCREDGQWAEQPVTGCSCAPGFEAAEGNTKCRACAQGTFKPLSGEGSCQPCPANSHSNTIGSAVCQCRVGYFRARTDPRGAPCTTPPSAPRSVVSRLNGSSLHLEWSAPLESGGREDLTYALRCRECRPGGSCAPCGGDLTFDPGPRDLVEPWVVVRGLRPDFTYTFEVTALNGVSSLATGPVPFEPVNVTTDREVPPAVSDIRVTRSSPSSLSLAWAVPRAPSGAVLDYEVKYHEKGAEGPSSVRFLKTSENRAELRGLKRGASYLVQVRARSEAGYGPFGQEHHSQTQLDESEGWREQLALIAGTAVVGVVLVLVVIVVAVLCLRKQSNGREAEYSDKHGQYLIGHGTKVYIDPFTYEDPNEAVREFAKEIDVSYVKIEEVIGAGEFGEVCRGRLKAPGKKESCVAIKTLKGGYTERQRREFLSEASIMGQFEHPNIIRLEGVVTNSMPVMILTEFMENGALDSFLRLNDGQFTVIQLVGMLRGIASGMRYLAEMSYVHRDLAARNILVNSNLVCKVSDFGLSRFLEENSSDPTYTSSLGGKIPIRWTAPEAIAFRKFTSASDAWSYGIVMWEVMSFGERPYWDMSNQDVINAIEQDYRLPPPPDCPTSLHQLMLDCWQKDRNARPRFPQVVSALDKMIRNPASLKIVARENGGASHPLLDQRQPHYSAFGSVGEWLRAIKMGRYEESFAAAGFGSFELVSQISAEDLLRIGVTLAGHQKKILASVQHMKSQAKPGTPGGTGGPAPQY
Protocol: as §1

ZAP70 = target: T14, ZAP70 (Homo sapiens, UniProt P43403)
T14 construct: purchased DiscoveRx KINOMEscan
T14 sequence (P43403 1-619): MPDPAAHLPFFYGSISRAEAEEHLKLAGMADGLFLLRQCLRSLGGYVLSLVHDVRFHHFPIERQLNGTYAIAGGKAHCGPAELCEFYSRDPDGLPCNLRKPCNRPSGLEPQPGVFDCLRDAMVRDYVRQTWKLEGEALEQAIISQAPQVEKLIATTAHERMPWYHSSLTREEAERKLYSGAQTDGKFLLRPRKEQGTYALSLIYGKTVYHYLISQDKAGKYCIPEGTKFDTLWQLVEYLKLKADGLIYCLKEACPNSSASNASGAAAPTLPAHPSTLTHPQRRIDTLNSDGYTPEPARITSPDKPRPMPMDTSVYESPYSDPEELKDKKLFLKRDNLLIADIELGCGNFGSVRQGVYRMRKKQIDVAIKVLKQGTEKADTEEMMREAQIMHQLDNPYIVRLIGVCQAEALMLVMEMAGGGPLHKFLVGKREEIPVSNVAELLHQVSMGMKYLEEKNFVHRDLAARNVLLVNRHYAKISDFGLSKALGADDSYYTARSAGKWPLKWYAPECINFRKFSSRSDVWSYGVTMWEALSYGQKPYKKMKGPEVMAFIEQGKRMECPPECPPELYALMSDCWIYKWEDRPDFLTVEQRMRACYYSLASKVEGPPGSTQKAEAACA
Protocol: as §1

EGFR = target: T15, EGFR (Homo sapiens, UniProt P00533); details: Novartis
T15 construct: purchased DiscoveRx KINOMEscan
Protocol: as §1

PCTK2 = target: T16, PCTK2 (Homo sapiens, UniProt Q00537); details: Ambit
T16 construct: purchased DiscoveRx KINOMEscan
Protocol: as §1

FLT3 = target: T17, FLT3 (Homo sapiens, UniProt P36888); details: Novartis
T17 construct: purchased DiscoveRx KINOMEscan
Protocol: as §1

BTK = target: T18, BTK (Homo sapiens, UniProt Q06187); details: Novartis
T18 construct: purchased DiscoveRx KINOMEscan
Protocol: as §1

[1] = target: T19, TYK2(JH1domain-catalytic) (Homo sapiens, UniProt P29597); details: Novartis
T19 construct: TYK2(JH1domain-catalytic)
Protocol: as §1

T8 sequence (P16234 24-1089): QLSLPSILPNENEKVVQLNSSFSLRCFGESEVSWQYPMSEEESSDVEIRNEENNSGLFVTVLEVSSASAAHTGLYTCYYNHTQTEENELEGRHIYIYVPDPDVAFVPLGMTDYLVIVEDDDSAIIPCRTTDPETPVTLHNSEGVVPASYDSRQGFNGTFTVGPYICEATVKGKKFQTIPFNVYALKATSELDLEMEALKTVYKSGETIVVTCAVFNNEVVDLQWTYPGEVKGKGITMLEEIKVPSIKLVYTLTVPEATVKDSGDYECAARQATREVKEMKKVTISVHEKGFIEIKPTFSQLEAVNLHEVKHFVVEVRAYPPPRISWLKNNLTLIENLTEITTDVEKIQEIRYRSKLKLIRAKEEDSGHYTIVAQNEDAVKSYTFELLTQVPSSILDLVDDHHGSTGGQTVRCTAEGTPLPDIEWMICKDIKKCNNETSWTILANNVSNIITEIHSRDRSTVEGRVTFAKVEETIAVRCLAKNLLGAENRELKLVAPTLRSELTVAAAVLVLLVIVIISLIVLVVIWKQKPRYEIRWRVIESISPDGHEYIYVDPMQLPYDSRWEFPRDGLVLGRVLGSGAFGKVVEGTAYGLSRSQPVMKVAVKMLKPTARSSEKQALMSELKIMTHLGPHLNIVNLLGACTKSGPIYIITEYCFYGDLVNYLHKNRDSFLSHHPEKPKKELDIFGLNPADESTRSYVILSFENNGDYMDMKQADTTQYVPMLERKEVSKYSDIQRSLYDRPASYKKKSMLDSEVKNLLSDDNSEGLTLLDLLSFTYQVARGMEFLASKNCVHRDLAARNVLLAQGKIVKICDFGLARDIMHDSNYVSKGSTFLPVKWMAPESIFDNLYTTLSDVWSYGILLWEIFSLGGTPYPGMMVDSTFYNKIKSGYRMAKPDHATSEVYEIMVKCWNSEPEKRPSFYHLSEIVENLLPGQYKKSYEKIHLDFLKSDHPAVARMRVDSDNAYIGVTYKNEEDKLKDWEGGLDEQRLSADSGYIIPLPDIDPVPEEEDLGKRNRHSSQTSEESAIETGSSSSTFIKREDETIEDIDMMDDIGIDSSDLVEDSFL
T17 sequence (P36888 27-993): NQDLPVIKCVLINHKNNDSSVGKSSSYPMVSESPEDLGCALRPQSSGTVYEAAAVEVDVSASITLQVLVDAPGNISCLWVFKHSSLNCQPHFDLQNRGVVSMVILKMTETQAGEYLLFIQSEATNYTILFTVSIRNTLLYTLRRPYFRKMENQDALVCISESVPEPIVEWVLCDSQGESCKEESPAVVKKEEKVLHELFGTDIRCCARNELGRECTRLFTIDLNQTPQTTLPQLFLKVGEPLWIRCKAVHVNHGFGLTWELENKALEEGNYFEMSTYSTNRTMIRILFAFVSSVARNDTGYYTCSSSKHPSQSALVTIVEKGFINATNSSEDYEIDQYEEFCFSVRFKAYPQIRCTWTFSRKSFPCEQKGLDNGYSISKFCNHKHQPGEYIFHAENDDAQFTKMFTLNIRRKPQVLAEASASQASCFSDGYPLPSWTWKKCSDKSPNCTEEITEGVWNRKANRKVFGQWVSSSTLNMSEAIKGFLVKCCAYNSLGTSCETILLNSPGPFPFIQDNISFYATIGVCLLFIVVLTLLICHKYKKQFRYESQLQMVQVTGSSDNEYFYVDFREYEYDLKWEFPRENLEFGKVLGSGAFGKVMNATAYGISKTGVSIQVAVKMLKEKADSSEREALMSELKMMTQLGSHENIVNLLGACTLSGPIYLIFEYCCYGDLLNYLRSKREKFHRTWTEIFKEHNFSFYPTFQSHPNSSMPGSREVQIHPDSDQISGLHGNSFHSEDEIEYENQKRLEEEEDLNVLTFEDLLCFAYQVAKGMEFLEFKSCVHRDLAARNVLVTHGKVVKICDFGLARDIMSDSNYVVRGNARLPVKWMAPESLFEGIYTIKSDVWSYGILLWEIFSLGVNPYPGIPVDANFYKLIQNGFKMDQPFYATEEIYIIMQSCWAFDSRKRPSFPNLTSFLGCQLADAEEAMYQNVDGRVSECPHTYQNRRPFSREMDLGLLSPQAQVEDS
T6 sequence (Q9Y6M4 whole entry): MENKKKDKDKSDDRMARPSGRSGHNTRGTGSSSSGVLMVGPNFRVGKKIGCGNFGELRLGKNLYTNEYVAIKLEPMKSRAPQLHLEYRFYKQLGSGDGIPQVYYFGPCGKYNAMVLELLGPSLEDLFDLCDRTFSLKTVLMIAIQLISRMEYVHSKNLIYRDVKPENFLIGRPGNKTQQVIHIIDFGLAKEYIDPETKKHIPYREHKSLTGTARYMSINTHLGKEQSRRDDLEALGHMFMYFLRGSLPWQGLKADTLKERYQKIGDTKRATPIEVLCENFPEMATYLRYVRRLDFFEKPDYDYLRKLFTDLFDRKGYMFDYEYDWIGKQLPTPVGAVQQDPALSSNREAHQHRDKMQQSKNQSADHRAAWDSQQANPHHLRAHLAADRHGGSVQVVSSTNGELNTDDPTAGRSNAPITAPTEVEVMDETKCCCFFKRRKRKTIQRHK
T11 sequence (Q9UM73 19-1620): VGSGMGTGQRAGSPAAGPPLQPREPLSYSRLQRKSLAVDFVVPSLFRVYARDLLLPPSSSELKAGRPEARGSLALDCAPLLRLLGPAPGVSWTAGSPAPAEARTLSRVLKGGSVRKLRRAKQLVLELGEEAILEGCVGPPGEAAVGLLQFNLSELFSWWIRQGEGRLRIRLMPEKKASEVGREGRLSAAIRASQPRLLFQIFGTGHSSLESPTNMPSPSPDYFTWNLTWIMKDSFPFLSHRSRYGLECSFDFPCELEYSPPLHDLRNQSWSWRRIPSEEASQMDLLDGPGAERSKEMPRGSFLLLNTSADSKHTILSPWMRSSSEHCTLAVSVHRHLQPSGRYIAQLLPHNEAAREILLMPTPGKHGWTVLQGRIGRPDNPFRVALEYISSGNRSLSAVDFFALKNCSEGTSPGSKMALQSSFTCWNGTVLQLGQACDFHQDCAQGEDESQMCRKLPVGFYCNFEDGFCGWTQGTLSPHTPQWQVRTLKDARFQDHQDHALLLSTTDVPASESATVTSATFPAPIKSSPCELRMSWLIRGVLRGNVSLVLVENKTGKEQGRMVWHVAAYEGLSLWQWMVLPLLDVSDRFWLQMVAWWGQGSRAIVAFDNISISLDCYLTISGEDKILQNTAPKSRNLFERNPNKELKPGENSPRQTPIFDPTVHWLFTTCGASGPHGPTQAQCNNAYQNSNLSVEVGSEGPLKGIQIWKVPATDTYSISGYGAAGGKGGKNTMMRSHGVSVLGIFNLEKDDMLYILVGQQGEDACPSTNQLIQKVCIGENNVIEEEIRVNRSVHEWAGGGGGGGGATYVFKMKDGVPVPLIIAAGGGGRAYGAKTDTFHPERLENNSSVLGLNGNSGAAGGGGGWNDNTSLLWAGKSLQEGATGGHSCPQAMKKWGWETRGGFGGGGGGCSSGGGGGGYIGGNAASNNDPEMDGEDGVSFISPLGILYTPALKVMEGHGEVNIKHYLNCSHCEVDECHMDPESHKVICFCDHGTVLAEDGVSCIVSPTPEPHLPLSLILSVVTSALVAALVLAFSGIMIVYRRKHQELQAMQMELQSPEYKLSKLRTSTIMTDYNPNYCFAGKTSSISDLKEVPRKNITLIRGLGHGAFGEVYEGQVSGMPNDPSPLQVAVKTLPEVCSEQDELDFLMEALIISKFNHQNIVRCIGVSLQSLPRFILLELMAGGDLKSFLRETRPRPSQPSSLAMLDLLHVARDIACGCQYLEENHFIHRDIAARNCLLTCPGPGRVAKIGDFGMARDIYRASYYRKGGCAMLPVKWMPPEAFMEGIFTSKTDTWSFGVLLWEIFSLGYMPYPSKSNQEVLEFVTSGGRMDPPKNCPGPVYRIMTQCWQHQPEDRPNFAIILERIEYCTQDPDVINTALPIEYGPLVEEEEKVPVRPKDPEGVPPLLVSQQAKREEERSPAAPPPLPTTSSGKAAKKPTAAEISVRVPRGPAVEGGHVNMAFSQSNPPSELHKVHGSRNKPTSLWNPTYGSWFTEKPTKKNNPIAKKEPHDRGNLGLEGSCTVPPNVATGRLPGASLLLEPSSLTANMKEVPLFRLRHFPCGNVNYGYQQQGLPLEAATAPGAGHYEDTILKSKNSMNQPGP
T16 sequence (Q00537 whole entry): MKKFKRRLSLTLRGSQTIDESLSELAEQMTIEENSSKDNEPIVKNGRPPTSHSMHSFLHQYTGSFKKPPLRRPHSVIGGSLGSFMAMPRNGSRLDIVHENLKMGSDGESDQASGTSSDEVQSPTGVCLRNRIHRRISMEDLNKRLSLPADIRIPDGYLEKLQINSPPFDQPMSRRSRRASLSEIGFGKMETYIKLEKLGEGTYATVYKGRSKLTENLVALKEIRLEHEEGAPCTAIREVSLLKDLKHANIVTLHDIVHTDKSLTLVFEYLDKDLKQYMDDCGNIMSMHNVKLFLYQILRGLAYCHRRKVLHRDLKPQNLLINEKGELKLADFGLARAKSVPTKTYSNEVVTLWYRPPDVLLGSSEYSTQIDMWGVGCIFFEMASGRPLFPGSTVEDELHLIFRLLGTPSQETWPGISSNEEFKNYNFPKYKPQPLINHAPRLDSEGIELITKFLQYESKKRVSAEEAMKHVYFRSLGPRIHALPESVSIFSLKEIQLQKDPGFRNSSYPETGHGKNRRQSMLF
T4 sequence (Q9BUB5 whole entry): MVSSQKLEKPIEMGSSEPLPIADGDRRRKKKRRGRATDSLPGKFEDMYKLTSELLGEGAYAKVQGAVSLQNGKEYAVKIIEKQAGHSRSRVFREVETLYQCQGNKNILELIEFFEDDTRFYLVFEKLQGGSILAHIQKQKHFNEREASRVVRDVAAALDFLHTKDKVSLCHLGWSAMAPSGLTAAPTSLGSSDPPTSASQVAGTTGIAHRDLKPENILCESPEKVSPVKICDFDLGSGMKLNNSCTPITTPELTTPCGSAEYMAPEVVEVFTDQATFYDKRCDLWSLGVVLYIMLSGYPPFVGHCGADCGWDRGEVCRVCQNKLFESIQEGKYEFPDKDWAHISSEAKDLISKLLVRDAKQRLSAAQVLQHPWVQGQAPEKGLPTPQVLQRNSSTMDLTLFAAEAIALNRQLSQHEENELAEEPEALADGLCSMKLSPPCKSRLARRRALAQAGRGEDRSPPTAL

## N[C@H]1CC[C@H](Nc2cc(-c3cccc(NCc4cccc(F)c4)n3)c(Cl)cn2)CC1 [i-CDK9, N2′-(trans-4-aminocyclohexyl)-5′-chloro-N6-(3-fluorobenzyl)-2,4′-bipyridine-2′,6-diamine]
LCK
  pIC50: < 5.00
PIM2
  pIC50: < 5.00
MET
  pIC50: < 5.00
MKNK1
  pIC50: < 5.00
PKN1
  pIC50: < 5.00
CSNK1G3
  pIC50: < 5.00
RET
  pIC50: < 5.00
PDGFRA
  pIC50: < 5.00
KIT
  pIC50: < 5.00
CSK
  pIC50: < 5.00
ALK
  pIC50: < 5.00
LYN
  pIC50: < 5.00
S6K1
  pIC50: < 5.00
EPHB4
  pIC50: < 5.00
ZAP70
  pIC50: < 5.00
EGFR
  pIC50: < 5.00
PCTK2
  pIC50: < 7.10
FLT3
  pIC50: < 5.00
BTK
  pIC50: < 5.00
[1]
  pIC50: < 5.00
